This is an account of results in article PMC10531337 (International Journal of Molecular Sciences, 2023).

This test has as its target T1, epidermal growth factor receptor (EGFR) (Homo sapiens, UniProt P00533).
T1 construct: extracellular domain
Briefly: SPR (Biacore S200, EGFR amine-coupled to CM5 chip, […] model); also BLI (Octet RED96) at […]. It is filed as binding. For orientation: In SPR one partner is held on a chip, and binding of the other changes the refractive index at the surface.

T1 sequence (P00533 25-645 limits assumed): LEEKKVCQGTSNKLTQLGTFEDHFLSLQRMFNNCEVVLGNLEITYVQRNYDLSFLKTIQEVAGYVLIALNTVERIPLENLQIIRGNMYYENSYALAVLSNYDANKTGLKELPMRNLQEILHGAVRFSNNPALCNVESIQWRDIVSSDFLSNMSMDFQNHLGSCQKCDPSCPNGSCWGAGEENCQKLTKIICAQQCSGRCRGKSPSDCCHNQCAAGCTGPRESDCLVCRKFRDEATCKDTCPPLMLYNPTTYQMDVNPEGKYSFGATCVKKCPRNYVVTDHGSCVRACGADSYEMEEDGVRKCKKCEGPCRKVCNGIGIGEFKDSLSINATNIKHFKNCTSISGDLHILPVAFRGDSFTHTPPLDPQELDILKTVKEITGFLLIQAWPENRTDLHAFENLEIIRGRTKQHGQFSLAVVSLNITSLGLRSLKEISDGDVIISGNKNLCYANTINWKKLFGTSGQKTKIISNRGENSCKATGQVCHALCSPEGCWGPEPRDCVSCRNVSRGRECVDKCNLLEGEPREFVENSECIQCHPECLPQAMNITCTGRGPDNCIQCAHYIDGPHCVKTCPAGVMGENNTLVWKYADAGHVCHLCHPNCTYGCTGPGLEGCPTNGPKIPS

As to `O=C(O[C@@H]1Cc2c(O)cc(O)cc2O[C@@H]1c1cc(O)c(O)c(O)c1-c1c([C@H]2Oc3cc(O)cc(O)c3C[C@H]2OC(=O)c2cc(O)c(O)c(O)c2)cc(O)c(O)c1O)c1cc(O)c(O)c(O)c1` [compound 3, theasinensin A], binding was characterised by a dissociation constant (Kd) of 7.14 µM.
